Here are results for eleven compounds from ChEMBL document CHEMBL1145323, “Synthesis and biological activity of amide derivatives of nimbolide” (Bioorg Med Chem Lett, 2006).

What all share (type): functional, cell-based
In one assay the test system is PC-3. Description: Antiproliferative activity against human PC3 cell line.
For a further assay, the system named is SW-60. Description: Antiproliferative activity against […].
Another assay has as its system A549. Put plainly: Antiproliferative activity against human A549 cell line.
A further assay concerns HT-29. Description: Antiproliferative activity against human HT29 cell line.
Another assay deals with HOP-62. Put plainly: Antiproliferative activity against human HOP62 cell line.
The test system of another assay is OVCAR-5. Description: Antiproliferative activity against human OVCAR5 cell line.
Where [1] appears, read: Homo sapiens, PC-3, read-out: IC50.
[2] abbreviates: Homo sapiens, HT-29, read-out: IC50.
The mark [3] stands for this setting: Homo sapiens, OVCAR-5, read-out: IC50.
The mark [4] stands for this setting: Homo sapiens, SW-60, read-out: IC50.
[5] abbreviates: Homo sapiens, A549, read-out: IC50.
[6] abbreviates: Homo sapiens, HOP-62, read-out: IC50.

Turning to `COC(=O)C[C@H]1[C@]2(C)C3=C(C)[C@H](c4ccoc4)C[C@H]3O[C@@H]2[C@H](O)[C@@H]2[C@]1(C)C(=O)C=C[C@@]2(C)C(=O)NC(C)c1ccccc1` (stereo partly specified), the IC50 in the assay with PC-3 (setting [1]) is 43.1 µM; with SW-60 (sw-60), “Not Active”; in the assay with A549 (a549), “Not Active”; in the assay with HT-29 (setting [2]), 47.2 µM; in the assay on HOP-62 (hop-62) it was “Not Active”; in the assay with OVCAR-5 (setting [3]), 89.2 µM.
For the compound `COC(=O)C[C@H]1[C@]2(C)C3=C(C)[C@H](c4ccoc4)C[C@H]3O[C@@H]2[C@H](O)[C@@H]2[C@]1(C)C(=O)C=C[C@@]2(C)C(=O)N1CCOCC1`, the IC50 in the assay with PC-3 (setting [1]) is 2.26 µM; in the assay with SW-60 (setting [4]), 5.72 µM; in the assay with A549 (a549), “Not Active”; with HT-29 (setting [2]) it was 3.38 µM; in the assay with HOP-62 (hop-62), “Not Active”; with OVCAR-5 (setting [3]), 2.11 µM.
In the case of `COC(=O)C[C@H]1[C@]2(C)C3=C(C)[C@H](c4ccoc4)C[C@H]3O[C@@H]2[C@H](O)[C@@H]2[C@]1(C)C(=O)C=C[C@@]2(C)C(=O)N1CCCCC1`, the IC50 in the assay with PC-3 (setting [1]) was 48.2 µM; in the assay on SW-60 (sw-60), “Not Active”; in the assay on A549 (setting [5]) it was 78.3 µM; with HT-29 (setting [2]) it was 91.5 µM; in the assay with HOP-62 (hop-62), “Not Active”; in the assay with OVCAR-5 (setting [3]), 62.3 µM.
Regarding `COC(=O)C[C@H]1[C@]2(C)C3=C(C)[C@H](c4ccoc4)C[C@H]3O[C@@H]2[C@H](O)[C@@H]2[C@]1(C)C(=O)C=C[C@@]2(C)C(=O)NCc1ccccc1`, the IC50 entry is “Not Active” in the assay on PC-3 (pc-3); “Not Active” in the assay with SW-60 (sw-60); “Not Active” in the assay on A549 (a549); 43.2 µM in the assay on HT-29 (setting [2]); 26.3 µM in the assay on HOP-62 (setting [6]); 82.4 µM with OVCAR-5 (setting [3]).
As for `COC(=O)C[C@H]1[C@]2(C)C3=C(C)[C@H](c4ccoc4)C[C@H]3O[C@@H]2[C@H](O)[C@@H]2[C@]1(C)C(=O)C=C[C@@]2(C)C(=O)NC(C(=O)OC)c1ccccc1` (stereo partly specified), the concentration for half-maximal inhibition (IC50) with PC-3 (setting [1]) was 8.11 µM; in the assay on SW-60 (sw-60) it was “Not Active”; in the assay with A549 (a549), “Not Active”; in the assay on HT-29 (setting [2]), 8.62 µM; in the assay on HOP-62 (setting [6]), 13.5 µM; in the assay with OVCAR-5 (ovcar-5), “Not Active”.
With `COC(=O)C[C@H]1[C@]2(C)C3=C(C)[C@H](c4ccoc4)C[C@H]3O[C@@H]2[C@H](O)[C@@H]2[C@]1(C)C(=O)C=C[C@@]2(C)C(=O)NCc1ccc(C(F)(F)F)cc1`, the IC50 with PC-3 (setting [1]) is 32.3 µM; in the assay with SW-60 (setting [4]), 26.4 µM; in the assay on A549 (setting [5]), 37.3 µM; with HT-29 (setting [2]), 17.5 µM; in the assay with HOP-62 (setting [6]), 14.1 µM; in the assay on OVCAR-5 (ovcar-5) it was “Not Active”.
In the case of `COC(=O)C[C@H]1[C@]2(C)C3=C(C)[C@H](c4ccoc4)C[C@H]3O[C@@H]2[C@H](O)[C@@H]2[C@]1(C)C(=O)C=C[C@@]2(C)C(=O)NCc1ccc(F)cc1`, the half-maximal inhibitory concentration (IC50) result was “Not Active” with PC-3 (pc-3); “Not Active” in the assay with SW-60 (sw-60); “Not Active” in the assay with A549 (a549); 78.1 µM with HT-29 (setting [2]); “Not Active” with HOP-62 (hop-62); 84.1 µM with OVCAR-5 (setting [3]).
As for `COC(=O)C[C@H]1[C@]2(C)C3=C(C)[C@H](c4ccoc4)C[C@H]3O[C@@H]2[C@H](O)[C@@H]2[C@]1(C)C(=O)C=C[C@@]2(C)C(=O)NCc1ccc(OC)cc1`, the IC50 with PC-3 (setting [1]) was 21.5 µM; in the assay on SW-60 (sw-60), “Not Active”; in the assay with A549 (a549), “Not Active”; with HT-29 (ht-29), “Not Active”; in the assay with HOP-62 (setting [6]) it was 102 µM; in the assay with OVCAR-5 (setting [3]) it was 93.1 µM.
For the compound `COC(=O)C[C@H]1[C@]2(C)C3=C(C)[C@H](c4ccoc4)C[C@H]3O[C@@H]2[C@H](O)[C@@H]2[C@]1(C)C(=O)C=C[C@@]2(C)C(=O)NCc1cccc(OC)c1`, the IC50 entry with PC-3 (pc-3) is “Not Active”; in the assay with SW-60 (sw-60) it was “Not Active”; with A549 (a549) it was “Not Active”; in the assay with HT-29 (setting [2]) it was 63.1 µM; with HOP-62 (setting [6]) it was 79.2 µM; in the assay with OVCAR-5 (ovcar-5) it was “Not Active”.
Take `COC(=O)C[C@H]1[C@]2(C)C3=C(C)[C@H](c4ccoc4)C[C@H]3O[C@@H]2[C@H](O)[C@@H]2[C@]1(C)C(=O)C=C[C@@]2(C)C(=O)NCC(C)C`: the 50% inhibitory concentration (IC50) was 7.43 µM in the assay with PC-3 (setting [1]); 0.08 µM in the assay on SW-60 (setting [4]); “Not Active” with A549 (a549); 0.05 µM with HT-29 (setting [2]); 4.83 µM with HOP-62 (setting [6]); 1.53 µM in the assay on OVCAR-5 (setting [3]).
With `COC(=O)C[C@H]1[C@]2(C)C3=C(C)[C@H](c4ccoc4)C[C@H]3O[C@@H]2[C@@H]2OC(=O)[C@]3(C)C=CC(=O)[C@@]1(C)[C@@H]23` [NIMBOLIDE], the half-maximal inhibitory concentration (IC50) in the assay on PC-3 (setting [1]) is 4.59 µM; in the assay on SW-60 (setting [4]), 8.25 µM; with A549 (setting [5]), 15.6 µM; in the assay with HT-29 (setting [2]), 6.94 µM; in the assay on HOP-62 (setting [6]), 10.4 µM; with OVCAR-5 (setting [3]), 4.17 µM.

For orientation: IC50 means the concentration at which inhibition is half-maximal.
